From patent publication US7521396B2, “Substituted (thioxo)carbonylaminophenyluracils” (Bayer CropScience AG, priority 2002, dated 2009)
Like-named read-outs stand apart in the source and are kept apart here. Marks after values point to notes of the source that are not given here.

How the values were obtained:
[1] = logP by HPLC on reversed-phase column (C 18), EEC Directive 79/831 Annex V.A8; type: physicochemical
[2] = test system: weeds; assay: Pre-emergence test (Example A), damage to weeds; type: in vivo; settings: soil sprayed 24 hours after sowing, rated after three weeks
Experimental: (§1) To produce a suitable preparation of active compound, 1 part by weight of active compound is mixed with the stated amount of solvent, the stated amount of emulsifier is added and the concentrate is diluted with water to the desired concentration.
Seeds of the test plants are sown in normal soil. After 24 hours, the soil is sprayed with the preparation of active compound such that the particular amount of active compound desired is applied per unit area. The concentration of active compound in the spray liquor is chosen such that the particular amount of active compound desired is applied in 1000 liters of water per hectare.
After three weeks, the degree of damage to the plants is rated in % damage in comparison to the development of the untreated control. The figures denote: • 0%=no effect (like untreated control) • 100%=total destruction

[3] = test system: weeds; assay: Post-emergence test (Example B), damage to weeds; type: in vivo; settings: test plants of 5-15 cm sprayed, rated after three weeks
Experimental: as §1
Test plants of a height of 5-15 cm are sprayed with the preparation of active compound such that the particular amounts of active compound desired are applied per unit area. The concentration of the spray liquor is chosen such that the particular amounts of active compound desired are applied in 1000 l of water/ha.
After three weeks, the degree of damage to the plants is rated in % damage in comparison to the development of the untreated control.
The figures denote: • 0%=no effect (like untreated control) • 100%=total destruction

Structure (SMILES) | logP [1] | activity against weeds (degree of damage) [2] | activity against weeds (degree of damage) [3] | logP ([1]; a) acidic range: 0.1% aqueous phosphoric acid, acetonitrile gradient, 43° C.)
CN1CCN(C(=O)Nc2cc(-n3c(=O)cc(C(F)(F)F)n(C)c3=O)c(F)cc2Br)C1=O [Example 5] | logP = 2.55^a) | strong activity | strong activity | –
CCN1CCN(C(=O)Nc2cc(-n3c(=O)cc(C(F)(F)F)n(C)c3=O)c(F)cc2Br)C1=O [Example 6] | logP = 2.85^a) | strong activity | strong activity | –
CN1CCCN(C(=O)Nc2cc(-n3c(=O)cc(C(F)(F)F)n(C)c3=O)c(F)cc2Br)C1=O [Example 7] | logP = 2.79^a) | strong activity | strong activity | –
CON(C)C(=O)Nc1cc(-n2c(=O)cc(C(F)(F)F)n(C)c2=O)c(F)cc1Br [Example 8] | logP = 2.67^a) | strong activity | strong activity | –
CONC(=O)Nc1cc(-n2c(=O)cc(C(F)(F)F)n(C)c2=O)c(F)cc1Br [Example 9] | logP = 2.19^a) | strong activity | strong activity | –
CCOC(=O)C(C)OC(=O)Nc1cc(-n2c(=O)cc(C(F)(F)F)n(C)c2=O)c(F)cc1Br (stereo not drawn) [Example 10] | logP = 3.06^a) | strong activity | strong activity | –
Cn1c(C(F)(F)F)cc(=O)n(-c2cc(NC(=O)NCCC#N)c(Br)cc2F)c1=O [Example 20] | – | strong activity | – | logP = 2.08^a)
CON(C)C(=O)Nc1cc(-n2c(=O)cc(C(F)(F)F)n(C)c2=O)c(F)cc1Cl [Example 21] | logP = 2.60^a) | strong activity | strong activity | –
C=CCONC(=O)Nc1cc(-n2c(=O)cc(C(F)(F)F)n(C)c2=O)c(F)cc1Cl [Example 22] | logP = 2.60^a) | strong activity | – | –
Cn1c(C(F)(F)F)cc(=O)n(-c2cc(NC(=O)N3CCCO3)c(Cl)cc2F)c1=O [Example 24] | logP = 2.58^a) | strong activity | strong activity | –
Cn1c(C(F)(F)F)cc(=O)n(-c2cc(NC(=O)N3CCOC3=O)c(Cl)cc2F)c1=O [Example 25] | logP = 2.55^a) | strong activity | strong activity | –
CCOC(=O)C1CCN(C(=O)Nc2cc(-n3c(=O)cc(C(F)(F)F)n(C)c3=O)c(F)cc2Br)CC1 [Example 36] | logP = 2.88^a) | – | strong activity | –
Cn1c(C(F)(F)F)cc(=O)n(-c2cc(NC(=O)N3CCOCC3)c(Br)cc2F)c1=O [Example 41] | logP = 2.16^a) | – | strong activity | –
CCOC(=O)C1CCN(C(=O)Nc2cc(-n3c(=O)cc(C(F)(F)F)n(C)c3=O)c(F)cc2Cl)CC1 [Example 42] | logP = 2.84^a) | – | strong activity | –
Cn1c(C(F)(F)F)cc(=O)n(-c2cc(NC(=O)N3CCOCC3)c(Cl)cc2F)c1=O [Example 49] | logP = 2.11^a) | strong activity | – | –
